Molecular target: T1, human GLP-1R (Homo sapiens, UniProt P43220)
T1 construct: expressed in transfected cells; host or cells: PEAK RAPID-derived Gα15-trans48 LD stably expressing cells (PRG48), transiently transfected with Lipofectamine 2000
Experiment: GLP-1 receptor in vitro calcium assay (intracellular free calcium concentration change induced via GLP-1 receptor)
Type: cell-based
Details: for EC50: PRG48 cells transfected with human GLP-1R, compound added with 250 pM GLP-1, Ca2+ response ΔF/F, read-out: Ca EC50 value; for GLP-1 receptor action enhancing activity (vs BETP): intensity compared to BETP, activity of BETP as 1
Procedure: The supernatant was removed by centrifugation (1,200 rpm, 3 min), and the cells were suspended at 4×10^6 cells/mL in 5% FBS DMEM/Ham's F-12. 1.0 mL thereof was seeded in a 15 cm dish and cultured (37° C., 5% CO2) overnight. The next day, the medium of the cultured PRG48 cells was replaced with 5% FBS DMEM/Ham's F-12 medium (30 mL), human GLP-1R gene mixture solution (GLP-1R/pc.DNA3.1(+) 60 μg) prepared using 6.0 mL of Opti-MEM (invitrogen) and 120 μL of Lipofectamin 2000 (invitrogen) was slowly added to the cells, and cultured (37° C., 5% CO2) for 6 hr to introduce the gene. […] The cells were counted, suspended at 0.5×10^6 cells/mL in 5% FBS DMEM/Ham's F-12 medium, and seeded in each well of D-Lysine coat 96 well plate (BD Bioscience) at 7.0×10^4 cells. After static adhesion at room temperature for 1 hr, the cells were cultured overnight (37° C., 5% CO2). The medium in the Cultured 96 well was entirely discarded, 150 μL of intracellular calcium measurement staining solution Calcium assay kit Express (Molecular Device) diluted 80-fold with Assay buffer (20 mM HEPES, 146 mM NaCl, 1 mM MgSO4, 1.39 mM glucose, 1 mM CaCl2, 2.5 mM Probenecid, 0.05% Casein Enzymatic Hydrolysate) was added, and the mixture was stood at 37° C. for 30 min, and then at room temperature for 45 min to perform staining. After staining, 250 pM GLP-1 and the compound were added and Ca^2+ response was observed by using FDSSμCELL (Hamamatsu Photonics K.K.). Each evaluation compound was dissolved in DMSO, further diluted with Assay buffer and used.
For evaluation, the fluorescence values (Ex480:Em540) before and after addition were measured, and changes in the intracellular free calcium concentration produced via GLP-1R receptor by the addition were quantitatively examined. For the measurement and analysis of the fluorescence values, a soft (FDSS7000EX) attached to the FDSSμCELL was used, and ΔF/F value ((maximum fluorescence value after stimulation−minimum fluorescence value after stimulation)/fluorescence value before stimulation) was calculated. Using the obtained ΔF/F values, EC50 value was calculated by Prism5.

T1 sequence (P43220 24-463): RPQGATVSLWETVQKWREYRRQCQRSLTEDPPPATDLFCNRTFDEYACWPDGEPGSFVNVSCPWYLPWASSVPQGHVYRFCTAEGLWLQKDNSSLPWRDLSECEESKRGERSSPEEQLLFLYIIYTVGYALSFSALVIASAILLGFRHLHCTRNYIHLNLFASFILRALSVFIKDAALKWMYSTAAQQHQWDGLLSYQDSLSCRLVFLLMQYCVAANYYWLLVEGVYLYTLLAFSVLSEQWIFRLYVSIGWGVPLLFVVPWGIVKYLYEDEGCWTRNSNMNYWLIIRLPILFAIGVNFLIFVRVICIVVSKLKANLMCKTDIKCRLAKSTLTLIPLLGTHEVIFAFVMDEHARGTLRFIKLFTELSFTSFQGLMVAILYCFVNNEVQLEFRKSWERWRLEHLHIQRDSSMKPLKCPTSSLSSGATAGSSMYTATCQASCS

Structure (SMILES)	EC50 [nM]	GLP-1 receptor action enhancing activity (vs BETP)
Cc1ccc(S(=O)(=O)Nc2ccc(NC(=O)N[C@H](Cc3ccc(Cl)cc3)C(=O)NCCC3CCCCC3)cc2)cc1 [Compound 46]	16	–
COc1cc(NC(=O)N[C@H](Cc2ccccc2)C(=O)OC(C)(C)C)ccc1NS(=O)(=O)c1ccc(C)cc1 [Compound 88]	1300	20
CCCC[C@@H](NC(=O)[C@@H](Cc1ccccc1)NC(=O)Nc1ccc(NS(=O)(=O)c2ccc(C)cc2)cc1)C(=O)OC [Compound 33]	1500	17
CCCOc1ccc(-c2noc([C@H](CC3CCCCC3)NC(=O)Nc3ccc(NS(=O)(=O)c4ccc(C(C)(C)C)cc4)cc3)n2)cc1 [Compound 83]	4.3	5794
Cc1ccc(S(=O)(=O)Nc2ccc(NC(=O)N[C@H](Cc3ccccc3)C(=O)NC3CCCCC3)cc2)cc1 [Compound 3]	1700	15
Cc1ccc(S(=O)(=O)Nc2ccc(NC(=O)N[C@@H](CC(C)C)C(=O)OC(C)(C)C)cc2)cc1 [Compound 65]	2000	13
CCCCC(CC)CNC(=O)[C@@H](CC(C)C)NC(=O)Nc1ccc(NS(=O)(=O)c2ccc(C)cc2)cc1 (some centres unmarked) [Compound 37]	180	140
CCCCC(CC)CNC(=O)[C@@H](Cc1ccc(Cl)cc1)NC(=O)Nc1ccc(NS(=O)(=O)c2ccc(C(C)(C)C)cc2)cc1 (stereo partly drawn) [Compound 1, (2R)-2-({4-[(4-tert-butylphenyl)sulfonylamino]phenyl}carbamoylamino)-3-(4-chlorophenyl)-N-(2-ethylhexyl)propanamide]	4.3	–
Cc1cc(C)c(S(=O)(=O)Nc2ccc(NC(=O)N[C@@H](Cc3ccccc3)C(=O)OC(C)(C)C)cc2)c(C)c1 [Compound 80]	380	67
CCCCCCNC(=O)[C@@H](CC1CCCCC1)NC(=O)Nc1ccc(NS(=O)(=O)c2ccc(C)cc2)cc1 [Compound 18]	360	71
CCCCCCCCNC(=O)[C@H](CC1CCCCC1)NC(=O)Nc1ccc(NS(=O)(=O)c2ccc(C(C)(C)C)cc2)cc1 [Compound 57]	3.4	7462
CCCCCCNC(=O)[C@@H](Cc1ccccc1)NC(=O)Nc1ccc(NS(=O)(=O)c2ccc(C)cc2)cc1 [Compound 2]	680	37
CCCCCCNc1ccc(S(=O)(=O)Nc2cccc(NC(=O)N[C@H](CC3CCCCC3)C(=O)NCC(CC)CCCC)c2)cn1 (some centres unmarked) [Compound 114]	30	850
Cc1ccc(S(=O)(=O)Nc2ccc(NC(=O)N[C@H](CC3CCCCC3)C(=O)NC3CCCCCC3)cc2)cc1 [Compound 41]	76	333
Cc1ccc(S(=O)(=O)Nc2ccc(NC(=O)N[C@H](Cc3ccccc3)C(=O)NC3CCCCCC3)cc2)cc1 [Compound 23]	370	68
CC[S+]([O-])c1nc(-c2cccc(OCc3ccccc3)c2)cc(C(F)(F)F)n1 (centres unmarked) [BETP, 4-(3-benzyloxyphenyl)-2-ethylsulfinyl-6-(trifluoromethyl)pyrimidine, reference compound]	25000	1
Cc1ccc(S(=O)(=O)Nc2ccc(NC(=O)N[C@H](Cc3ccccc3)c3nc(C(C)(C)C)no3)cc2)cc1 [Compound 70]	1300	20
CC(C)CCCC(C)NC(=O)[C@H](Cc1ccc(Cl)cc1)NC(=O)Nc1ccc(NS(=O)(=O)c2ccc(C(C)(C)C)cc2)cc1 (some centres unmarked) [Compound 58]	4.6	–
Cc1ccc(S(=O)(=O)Nc2ccc(NC(=O)N[C@H](Cc3ccccc3)c3nnc(S)n3-c3ccccc3)cc2)cc1 [Compound 90]	1400	18

Structure (SMILES)	EC50 [nM]	GLP-1 receptor action enhancing activity (vs BETP)
CC(C)(C)c1ccc(S(=O)(=O)Nc2ccc(NC(=O)N[C@@H](CC3CCCCC3)c3nc(-c4ccc(OC(F)(F)F)cc4)no3)cc2)cc1 [Compound 84]	3.4	7358
CCCCC(CC)CNC(=O)[C@H](CC(C)C)NC(=O)Nc1ccc(NS(=O)(=O)c2ccc(C(C)(C)C)cc2)cc1 (some centres unmarked) [Compound 51]	9	2786
Cc1ccc(S(=O)(=O)Nc2ccc(NC(=O)N[C@H](Cc3ccccc3)C(=O)NCCc3ccccc3)cc2)cc1 [Compound 13]	1700	15
CC(C)CCCC(C)NC(=O)[C@@H](CC1CCCCC1)NC(=O)Nc1ccc(NS(=O)(=O)c2ccc(N3CCOCC3)nc2)cc1 (stereo partly drawn) [Compound 104, (2R)-3-cyclohexyl-N-(1,5-dimethylhexyl)-2-({4-[(6-morpholino-3-pyridyl)sulfonylamino]phenyl}carbamoylamino)propanamide]	480	53
CC(C)c1ccc(S(=O)(=O)Nc2ccc(NC(=O)N[C@@H](Cc3ccccc3)C(=O)OC(C)(C)C)cc2)cc1 [Compound 72]	680	37
CCCCCCNC(=O)[C@@H](Cc1c[nH]c2ccccc12)NC(=O)Nc1ccc(NS(=O)(=O)c2ccc(C)cc2)cc1 [Compound 21]	470	53
Cc1ccc(S(=O)(=O)Nc2ccc(NC(=O)N[C@H](Cc3ccccc3)C(=O)NCc3ccccc3)cc2)cc1 [Compound 14]	1800	14
Cc1ccc(S(=O)(=O)Nc2ccc(NC(=O)N[C@H](Cc3ccccc3)C(=O)NCC(C)(C)C)cc2)cc1 [Compound 4]	1900	13
CCCCCCNc1ccc(S(=O)(=O)Nc2cccc(NC(=O)N[C@H](Cc3c[nH]c4ccccc34)C(=O)NC(C)CCCC(C)C)c2)cn1 (some centres unmarked) [Compound 110]	4.4	5731
Cc1ccc(S(=O)(=O)Nc2ccc(NC(=O)N[C@H](Cc3ccccc3)C(=O)NCc3ccc(F)cc3)cc2)cc1 [Compound 26]	1100	24
Cc1ccc(S(=O)(=O)Nc2ccc(NC(=O)N[C@H](Cc3ccccc3)C(=O)NC(C)CCCC(C)C)cc2)cc1 (some centres unmarked) [Compound 55]	45	558
CC(C)(C)OC(=O)[C@H](Cc1ccccc1)NC(=O)Nc1ccc(NS(=O)(=O)c2ccc(C(F)(F)F)cc2)cc1 [Compound 81]	1000	24
Cc1ccc(S(=O)(=O)Nc2ccc(NC(=O)N[C@H](Cc3ccccc3)C(=O)NCc3ccc(C)o3)cc2)cc1 [Compound 32]	820	31
CSCCCN(c1ccc(NC(=O)N[C@H](CC2CCCCC2)C(=O)NC(C)CCCC(C)C)cc1)S(=O)(=O)c1ccc(C(C)(C)C)cc1 (stereo partly drawn) [Compound 97, (2R)-2-({4-[(4-tert-butylphenyl)sulfonyl-(3-methylsulfanylpropyl)amino]phenyl}carbamoylamino)-3-cyclohexyl-N-(1,5-dimethylhexyl)propanamide]	63	399
Cc1ccc(S(=O)(=O)Nc2ccc(NC(=O)N[C@H](Cc3ccccc3)C(=O)NCC#N)cc2)cc1 [Compound 7]	50	505
Cc1ccc(S(=O)(=O)Nc2ccc(NC(=O)N[C@H](Cc3ccccc3)C(=O)OC(C)(C)C)cc2)cc1 [Compound 62, tert-butyl (2R)-3-phenyl-2-{[4-(p-tolylsulfonylamino)phenyl]carbamoylamino}propanoate]	930	27
CCCCC(CC)CNC(=O)[C@@H](Cc1c[nH]c2ccccc12)NC(=O)Nc1ccc(NS(=O)(=O)c2ccc(C(C)(C)C)cc2)cc1F (stereo partly drawn) [Compound 98, (2R)-2-[[4-[(4-tert-butylphenyl)sulfonylamino]-2-fluoro-phenyl]carbamoylamino]-N-(2-ethylhexyl)-3-(1H-indol-3-yl)propanamide]	72	350
Cc1ccc(S(=O)(=O)Nc2ccc(NC(=O)N[C@H](CC(C)C)C(=O)N[C@H](Cc3ccccc3)c3nc(C(C)(C)C)no3)cc2)cc1 [Compound 89]	260	98
